In patent US20210253598A1, “ARYL ANNULATED MACROCYCLIC INDOLE DERIVATIVES” (priority 2017, published 2021) one finds EC50 and IC50 data, which are given here for eight compounds.

Molecules are shown by their SMILES. Where a name gives a salt, the structure may show the parent alone. Read-outs that look alike come from different tables or passages of the source.

The subject of series [1] is SUDHL10. Kind of series: Induction of caspase-3/7 activity in SUDHL10 cells (Assay 4). The format is cell-based. The essentials:
(§1)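 DLBCL lines SUDHL5 and SUDHL10 were treated with compound for 3 h at 37 °C. Caspase-3/7 activity was then read by Caspase-Glo 3/7 luminescence after 1 h at 37 °C. Medium-only background was subtracted and values were normalized to the mean of DMSO-treated cells.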

For series [2], the system named is SUDHL5. Kind of series: Anti-proliferative effect in SUDHL5 cells, CellTiter-Glo (Assay 7). The format is cell-based. The method, boiled down:
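Cells plated and incubated overnight at 37° C, then exposed to compound for 72 hours. Viability read as CellTiter-Glo luminescence, with a day 0 plate as time-zero reference. IC50 calculated with day 0 values and DMSO control values as references.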
For orientation: In ATP-based viability assays light output follows the ATP content of the culture.

Series [3] concerns AMO-1. The experiment in a line: Anti-proliferative effect in AMO-1 cells, CellTiter-Glo (Assay 7). The format is cell-based. As to conditions: several values per example. As for the experimental part: (§2) Assessment of the Anti-Proliferative Effect of Compounds in Different Cell Lines
(§3) The impact of compounds on the proliferation of different cell lines was assessed using the CellTiter-Glo® Luminescent Cell Viability reagent from Promega (G7573).
(§4) In parallel, cells were plated in a reference (day 0) plate for time zero determination. Cells were incubated in a humidified incubator at 37° C. overnight.
(§5) Rim wells were excluded. The cells were incubated for 72 hours in a humidified incubator at 37° C. The day 0 plate was measured by adding 30 μL/well of CTG solution (CellTiter-Glo® Luminescent Cell Viability reagent, Promega G7573) to time zero wells in the reference plate followed by a 10 minutes incubation and luminescence reading at 0.1 ms. using the PHERAstar FS microplate reader (BMG Labtech).
(§6) After 72 hours incubation, the treated plates were measured in the same way as the day 0 plate mentioned above. The Bella DRC Master Sheet was used to calculate IC50s, with CI=day 0 values and C0=DMSO control values.

Series [4] deals with SUDHL10. Kind of series: Induction of cytotoxicity in SUDHL10 cells, CellTiter-Glo (Assay 6). The series is classed as cell-based. The settings on record: SUDHL10, 5 hours incubation, median, read-out: Cytotox SUDHL10 [M] (median). The essentials:
(§7)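 Overnight seeding at 37 °C, 5 h treatment, CellTiter-Glo added, 15 min shake at RT, luminescence read. Medium without cells as control.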

For series [5], the system named is MV-4-11. The experiment in a line: Anti-proliferative effect in MV-4-11 cells, CellTiter-Glo (Assay 7). The series is classed as cell-based. The settings on record: several values per example. As for the experimental part: as §2, §3, §4, §5, §6
The subject of series [6] is SUDHL5. The experiment in a line: Induction of caspase-3/7 activity in SUDHL5 cells (Assay 4). The series is classed as cell-based. The method, boiled down:
as §1

The target in series [7] is MCL-1 (Homo sapiens, UniProt Q07820, K194A/K197A/R201A). The experiment in a line: Protein-protein interaction assay MCL-1/Noxa BH3 peptide, TR-FRET (MCL-1 assay, Assay 1). The format is binding. As to conditions: MCL-1 Assay [M] (median), MBP-MCL-1 / Noxa BH3 peptide. The method, boiled down:
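Human MBP-fused MCL-1 (aa 173-321; 1 nM final) was pre-incubated 10 min at 22 °C with compound in pH 7 Tris buffer containing NaCl, KF, Tween-20, DTT and BGG. Displacement of biotinylated Noxa BH3 peptide was read by TR-FRET (anti-MBP-Eu cryptate/streptavidin-XL665) after 1 h at 22 °C plus overnight at 4 °C. IC50 came from four-parameter fits against DMSO controls.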
(In TR-FRET formats the signal depends on donor and acceptor labels being close together.)

Series [8] relates to SUDHL5. The experiment in a line: Induction of cytotoxicity in SUDHL5 cells, CellTiter-Glo (Assay 6). The series is classed as cell-based. As to conditions: SUDHL5, 5 hours incubation, median, read-out: Cytotox SUDHL5 [M] (median). The method, boiled down: as §7
Setting [9] is: Homo sapiens, SU-DHL10, 3 h, SUDHL10, 3 hours treatment, Caspase-Glo 3/7, median, read-out: Caspase SUDHL10 [M] (median).
[10] abbreviates: Homo sapiens, SU-DHL-5, 72 h, SUDHL5, 72 hours incubation, CellTiter-Glo, median, read-out: Antiproli SUDHL5 [M] (median).
Setting [11] is: Homo sapiens, AMO1, 72 h, AMO-1, 72 hours incubation, CellTiter-Glo, read-out: Antiproli AMO-1.
Where [12] appears, read: Homo sapiens, MV4-11, 72 h, MV-4-11, 72 hours incubation, CellTiter-Glo, read-out: Antiproli MV-4-11.
[13] abbreviates: Homo sapiens, SU-DHL-5, 3 h, SUDHL5, 3 hours treatment, Caspase-Glo 3/7, median, read-out: Caspase SUDHL5 [M] (median).

Chain of MCL-1 (Q07820 173-321 K194A/K197A/R201A, looked up): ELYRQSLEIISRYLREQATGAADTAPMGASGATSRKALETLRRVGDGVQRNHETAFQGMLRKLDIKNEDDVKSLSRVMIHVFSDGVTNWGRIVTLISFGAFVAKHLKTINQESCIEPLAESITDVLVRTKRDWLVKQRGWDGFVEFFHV

Consider `Cc1cc(OCCCc2c(C(=O)O)n3c4c(c(F)ccc24)-c2c(C)nn(C)c2COCc2ccccc2C3)cc(C)c1Cl` (racemic) [Example 85, (rac)-1-(3-(4-chloro-3,5-dimethylphenoxy)propyl)-15-fluoro-12,14-dimethyl-4,9,11,12-tetrahydrobenzo[3,4]pyrazolo[4′,3′:9,10][1]oxa[6]azacycloundecino[8,7,6-hi]indole-2-carboxylic Acid], for which the values for the EC50 in series [1] (setting [9]) and in series [6] (setting [13]) were 2e-05 M and 3.7e-06 M, respectively. Moreover, the IC50 in series [2] (setting [10]) was 6.9e-06 M; in series [3] (setting [11]) it was 2.37e-05 M; in series [4] (Homo sapiens, SU-DHL10, 5 h), 6.5e-06 M; in series [5] (setting [12]), 1.7e-05 M; in series [7], 1.2e-08 M; in series [8] (Homo sapiens, SU-DHL-5, 5 h), 3.3e-06 M.
Consider `CCc1nn(CCN2CCOCC2)c2c1-c1c(Cl)ccc3c(CCCOc4cccc5cc(F)ccc45)c(C(=O)O)n(c13)Cc1ccccc1COC2` (racemic) [Example 51, (rac)-3-Chloro-4-ethyl-17-{3-[(6-fluoronaphthalen-1-yl)oxy]propyl}-6-[2-(morpholin-4-yl)ethyl]-6,7,9,14-tetrahydroindolo[7,1-fg]pyrazolo[3,4-d][2,8]benzoxazacycloundecine-16-carboxylic Acid], for which the EC50 in series [1] (setting [9]) was found to be 1.8e-06 M; in series [6] (setting [13]), 8.7e-07 M. The IC50 in series [2] (setting [10]) is 7.1e-07 M; in series [3] (AMO-1, 72 hours incubation, CellTiter-Glo, read-out: Antiproli AMO-1), 2.64e-06 M; in series [3] (setting [11]), 4.26e-06 M; in series [4] (Homo sapiens, SU-DHL10, 5 h), 1.9e-06 M; in series [5] (setting [12]), 1.96e-06 M; in series [5] (MV-4-11, 72 hours incubation, CellTiter-Glo, read-out: Antiproli MV-4-11), 2.58e-06 M. Moreover, the IC50 in series [7] is 1.5e-09 M; in series [8] (Homo sapiens, SU-DHL-5, 5 h) it was 1.1e-06 M.
Consider `CCc1nn(C)c2c1-c1c(Cl)ccc3c(CCCOc4cccc5cc(F)ccc45)c(C(=O)O)n(c13)Cc1ccccc1COC2` (single isomer, unassigned; enantiomer 2) [Example 59, (−)-3-Chloro-4-ethyl-17-{3-[(6-fluoronaphthalen-1-yl)oxy]propyl}-6-methyl-6,7,9,14-tetrahydro-indolo[7,1-fg]pyrazolo[3,4-d][2,8]benzoxazacycloundecine-16-carboxylic acid-N-ethylethanamine Salt (Enantiomer 2)], for which the EC50 is 7.9e-06 M in series [1] (Homo sapiens, SU-DHL10, 3 h, read-out: Caspase SUDHL10 [M] (median), SUDHL10, 3 hours treatment, Caspase-Glo 3/7) and 1.9e-06 M in series [6] (Homo sapiens, SU-DHL-5, 3 h, read-out: Caspase SUDHL5 [M] (median), SUDHL5, 3 hours treatment, Caspase-Glo 3/7). The IC50 was determined as 2.6e-06 M in series [2] (Homo sapiens, SU-DHL-5, 72 h, read-out: Antiproli SUDHL5 [M] (median), SUDHL5, 72 hours incubation, CellTiter-Glo); 7.14e-06 M in series [3] (Homo sapiens, AMO1, 72 h, read-out: Antiproli AMO-1 [M], AMO-1, 72 hours incubation, CellTiter-Glo); 8.2e-06 M in series [4] (Homo sapiens, SU-DHL10, 5 h); 4.5e-06 M in series [5] (Homo sapiens, MV4-11, 72 h, read-out: Antiproli MV-4-11 [M], MV-4-11, 72 hours incubation, CellTiter-Glo); 1e-08 M in series [7]; 2.2e-06 M in series [8] (Homo sapiens, SU-DHL-5, 5 h).
On to `CCc1c2c(nn1C)COCc1ccccc1Cn1c(C(=O)O)c(CCCOc3cccc4cc(F)ccc34)c3ccc(F)c-2c31` (single isomer, unassigned; enantiomer 2) [Example 75, (+)-4-Ethyl-3-fluoro-17-{3-[(6-fluoronaphthalen-1-yl)oxy]propyl}-5-methyl-5,7,9,14-tetrahydro-indolo[7,1-fg]pyrazolo[3,4-d][2,8]benzoxazacycloundecine-16-carboxylic acid-N-ethylethanamine Salt (Enantiomer 2)], for which the EC50 was 1.5e-05 M in series [1] (read-out: Caspase SUDHL10 [M] (median), SUDHL10, 3 hours treatment, Caspase-Glo 3/7) and 4.4e-06 M in series [6] (read-out: Caspase SUDHL5 [M] (median), SUDHL5, 3 hours treatment, Caspase-Glo 3/7). In addition, the IC50 in series [2] (read-out: Antiproli SUDHL5 [M] (median), SUDHL5, 72 hours incubation, CellTiter-Glo) came out at 5.8e-06 M; in series [3] (read-out: Antiproli AMO-1, AMO-1, 72 hours incubation, CellTiter-Glo) it was 1.25e-05 M; in series [4] it was 1e-05 M; in series [5] (read-out: Antiproli MV-4-11, MV-4-11, 72 hours incubation, CellTiter-Glo), 1.64e-05 M; in series [7] it was 3e-09 M; in series [8] it was 5.2e-06 M.
With `Cc1c2c(nn1C)COCc1nccnc1Cn1c(C(=O)O)c(CCCOc3cccc4ccccc34)c3ccc(Cl)c-2c31` (racemic) [Example 45, (rac)-3-Chloro-4,5-dimethyl-17-{3-[(naphthalen-1-yl)oxy]propyl}-5,7,9,14-tetrahydropyrazino-[2′,3′:3,4]pyrazolo[4′,3′:9,10][1,6]oxazacycloundecino[8,7,6-hi]indole-16-carboxylic Acid], the values for the EC50 in series [1] (setting [9]) and in series [6] (setting [13]) were 7.9e-06 M and 2.2e-06 M, respectively. Also, the IC50 in series [3] (setting [11]) turned out to be 9.56e-06 M; in series [4] (Homo sapiens, SU-DHL10, 5 h), 8.2e-06 M; in series [5] (setting [12]) it was 1.19e-05 M; in series [8] (Homo sapiens, SU-DHL-5, 5 h) it was 2.7e-06 M.
For `CCc1nn(C)c2c1-c1c(F)ccc3c(CCCOc4ccc(F)c5ccccc45)c(C(=O)O)n(c13)Cc1ccccc1COC2` (racemic) [Example 89, (rac)-14-Ethyl-15-fluoro-1-(3-((4-fluoronaphthalen-1-yl)oxy)propyl)-12-methyl-4,9,11,12-tetrahydrobenzo[3,4]pyrazolo[4′,3′:9,10][1,6]oxaazacycloundecino[8,7,6-hi]indole-2-carboxylic Acid], the EC50 in series [1] (setting [9]) stood at 8.3e-06 M; in series [6] (setting [13]) it was 2.9e-06 M. In addition, the IC50 in series [2] (setting [10]) was found to be 4e-06 M; in series [3] (setting [11]) it was 1.28e-05 M; in series [4] (Homo sapiens, SU-DHL10, 5 h) it was 7.5e-06 M; in series [5] (setting [12]) it was 8.44e-06 M; in series [7] it was 1.2e-08 M; in series [8] (Homo sapiens, SU-DHL-5, 5 h), 2.6e-06 M.
As to `Cc1c2c(nn1C)CN(C)Cc1ccccc1Cn1c(C(=O)O)c(CCCOc3cccc4ccccc34)c3cccc-2c31` (single isomer, unassigned; enantiomer 2) [Example 16, 4,5,8-Trimethyl-17-[3-(naphthalen-1-yloxy)propyl]-7,8,9,14-tetrahydro-5H-indolo[1,7-bc]pyrazolo[4,3-e][2,8]benzodiazacycloundecine-16-carboxylic Acid (Enantiomer 2)], the results for the EC50 in series [1] (setting [9]) and in series [6] (setting [13]) were over 3.3e-05 M and 2.4e-05 M, respectively. For the same compound, the IC50 turned out to be 2.03e-05 M in series [3] (setting [11]); 3e-05 M in series [4]; 1.15e-05 M in series [5] (setting [12]); 1.1e-07 M in series [7]; 2.4e-05 M in series [8].
In the case of `CCc1nn(C)c2c1-c1c(F)ccc3c(CCCOc4cc(C)c(Cl)c(C)c4)c(C(=O)O)n(c13)Cc1ccccc1COC2` (racemic) [Example 86, (rac)-1-(3-(4-Chloro-3,5-dimethylphenoxy)propyl)-14-ethyl-15-fluoro-12-methyl-4,9,11,12-tetrahydrobenzo[3,4]pyrazolo[4′,3′:9,10][1,6]oxaazacycloundecino[8,7,6-hi]indole-2-carboxylic Acid], the EC50 in series [1] (setting [9]) is 6.9e-06 M; in series [6] (setting [13]), 2.7e-06 M. Also, the IC50 is 4.3e-06 M in series [2] (setting [10]); 1.69e-05 M in series [3] (setting [11]); 5.2e-06 M in series [4] (Homo sapiens, SU-DHL10, 5 h); 1.42e-05 M in series [5] (setting [12]); 1.1e-08 M in series [7]; 2.9e-06 M in series [8] (Homo sapiens, SU-DHL-5, 5 h).
